Laboratory results: PubChem BioAssay AID434987 (Southern Research Specialized Biocontainment Screening …, 2010)
Active and inactive are the calls of the source. How the calls were made is not given here.

Tested on: M. tuberculosis H37Rv growth inhibition with meropenem
Assay: dose response, H37Rv, with and without meropenem (AID 434987);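 further: growth over 7 days at 37 °C before Alamar Blue read on day 9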
[1] = M. tuberculosis H37Rv growth inhibition, measured here: IC50 without meropenem
[2] = M. tuberculosis H37Rv growth inhibition, measured here: IC90 without meropenem
[3] = measured here: IC90 with meropenem

SMILES | IC50 | IC50 [1] [µM] | IC90 [2] [µM] | IC90 [3] [µM]
N=C1C(c2nc(-c3ccc(Cl)cc3)cs2)=C(O)CN1CCCN1CCOCC1 | > 100 µM (inactive) | > 100 | > 100 | > 100
COc1cc(C(=O)NC2CCCCC2)ccc1OCc1ccc(Cl)cc1Cl | > 100 µM (inactive) | > 100 | > 100 | > 100
CCC(CC)Nc1ccc(C(CC(N)=O)NC(=O)c2ccccc2)cc1[N+](=O)[O-] (stereo unspecified) | > 100 µM (inactive) | > 100 | > 100 | > 100
CCCc1nc2oc3c(OCC)ncnc3c2c2c1COC(C)(C)C2 | 72.5 µM (inactive) | > 100 | > 100 | > 100
O=C(Nc1nc(-c2ccc3c(c2)OCCO3)cs1)c1ccc(S(=O)(=O)N2CCCCC2)cc1 | > 100 µM (inactive) | > 100 | > 100 | > 100
COc1cccc(/C=C/c2[nH]c(=O)[nH]c(=O)c2[N+](=O)[O-])c1O | 9.24 µM | 24.2 | 26.6 | 15.9
Cc1ccc(/C=N\NC(=O)c2csnn2)cc1 | 66.4 µM (inactive) | > 100 | > 100 | > 100
O=C(N/N=C/c1cc([N+](=O)[O-])ccc1O)C1CC1 | 4.14 µM | 58.9 | > 100 | > 100
COc1ccc2nc(SCc3cccc(C)c3)nc(C)c2c1 | > 100 µM (inactive) | > 100 | > 100 | > 100
O=C(COn1nnc2ccc(Cl)cc21)NC12CC3CC(CC(C3)C1)C2 | > 100 µM (inactive) | > 100 | > 100 | > 100
Cn1cc(C(=O)N/N=C/C(Br)=C\c2ccccc2)ccc1=O | > 100 µM (inactive) | > 100 | > 100 | > 100
O=C(COC(=O)C1CC1)c1c[nH]c2ccccc12 | 0.999 µM | > 100 | > 100 | > 100
COCCOC(=O)c1c(C)oc2ccc(OCc3cc(C(=O)OC)oc3C)cc12 | > 100 µM (inactive) | > 100 | > 100 | > 100
CCCC(=O)N1CCN(c2ccc(NC(=S)NC(=O)CC)cc2)CC1 | 62.1 µM (inactive) | > 100 | > 100 | > 100
O=C(NCCC1=CCCCC1)c1ccc(Cl)c([N+](=O)[O-])c1 | 25.9 µM (inactive) | 54.3 | > 100 | 30.2
Cn1c(O)c(C2=c3ccccc3=NC2=O)[nH]c1=S | 16.6 µM | > 100 | > 100 | > 100
C=CCSc1nnc2c(n1)OC(c1c(C)[nH]n(-c3ccccc3)c1=O)Nc1ccccc1-2 (stereo unspecified) | 28 µM | > 100 | > 100 | > 100
O=C1c2cccc3c(N4CCCCC4)ccc(c23)C(=O)N1c1ccccn1 | 84.8 µM (inactive) | > 100 | > 100 | > 100
Cn1c(=O)c(C(=O)COC(=O)c2cc(C3CC3)nc3ccccc23)c(N)n(Cc2ccccc2)c1=O | > 100 µM (inactive) | > 100 | > 100 | > 100
CCOC(=O)c1[nH]c2ccccc2c1NC(=O)Nc1ccc(OC)cc1 | > 100 µM (inactive) | > 100 | > 100 | > 100
CCOC(=O)N1CCN(C(=O)CSc2nnc(-c3ccccc3OC)o2)CC1 | 6.68 µM | 30 | 62.6 | > 100
CSc1ccccc1C(=O)Nc1ccc2c(c1)OCCO2 | 35.4 µM (inactive) | 80.5 | > 100 | > 100
CC(O)/C=C/c1ccc2ccccc2n1 (stereo unspecified) | 27.7 µM (inactive) | 53.9 | > 100 | 57.5
CCOC(=O)C(=CNc1ccc2c(c1)c1ccccc1n2CC)C(=O)OCC | 15.2 µM | > 100 | > 100 | > 25
O=c1oc(-c2cccs2)nc2sc3c(c12)CCCC3 | 22.2 µM | > 100 | > 100 | 29.7
CCOC(=O)c1sc(NC(=O)Cn2nnc3sc4c(c3c2=O)CCC(C(C)(C)C)C4)nc1C (stereo unspecified) | 93.7 µM (inactive) | > 100 | > 100 | > 100
CCOC(=O)c1ccc(N2CN(C3CCCCC3)CNC2=S)cc1 | 35.4 µM | > 100 | > 100 | > 100
O=C(N/N=C/c1c(Cl)cccc1Cl)c1cccc(F)c1 | > 100 µM (inactive) | > 100 | > 100 | > 100
c1ccc2c(c1)Cn1nc(Cc3nc4c(s3)CCCC4)nc1-2 | 47.5 µM (inactive) | 79.1 | > 100 | 53
